Data as given in PMC11078990, “Identification and characterization of small molecule inhibitors of the LINE-1 retrotransposon endonuclease” (Nature Communications, 2024).
Where “and” joins values, the source holds several entries; their conditions need not be identical. Equal values may be shown once. Read-outs that look alike come from different tables or passages of the source.

What was measured:
[1] = tested on: substrate oligonucleotide used in the EN activity assay; format: binding; set-up: key to Binding Detected? (Y/N): Binding Detected? (Y/N); Binding Detected? (Y/N)
[2] = tested on: HeLa Tet-On cells; conditions: human
[3] = tested on: L1 retrotransposition; assay: HeLa dual-luciferase L1 retrotransposition assay; format: cell-based, human; conditions: for L1 retrotransposition, average: average of 4 replicates, Figure 4b
[4] = molecular target: L1 EN (LINE-1 retrotransposon endonuclease domain) (Homo sapiens, UniProt O00370, N5T); assay: Fluorescent oligonucleotide EN nicking activity assay; format: biochemical
Sequence of L1 EN (LINE-1 retrotransposon endonuclease domain) (O00370 1-239 N5T): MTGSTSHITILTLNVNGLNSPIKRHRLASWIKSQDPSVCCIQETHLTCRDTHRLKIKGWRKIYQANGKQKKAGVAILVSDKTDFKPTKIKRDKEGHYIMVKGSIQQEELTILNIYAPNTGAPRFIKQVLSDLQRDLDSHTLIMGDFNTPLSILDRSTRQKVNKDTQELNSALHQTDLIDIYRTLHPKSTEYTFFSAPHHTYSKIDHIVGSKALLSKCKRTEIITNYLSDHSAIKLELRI

[5] = molecular target: T1, APE1 (Homo sapiens, UniProt P27695); assay: APE1 fluorescent oligonucleotide activity assay (abasic site substrate); format: biochemical; conditions: for Percent APE1 activity, average / Percent APE1 activity, replicates: 250 µM, Supplementary Fig. 6b; for Percent APE1 activity, average: n=3; for Percent APE1 activity, replicates: replicates 1-3; for activity at 25 µM: read-out: APE1 activity (%)
T1 construct: purchased New England Biolabs (NEB) M0282S

[6] = [Inhibitor] 5 μM, technical replicates 1-3, Fig. 2b source data, 5 µM
[7] = [Inhibitor] 25 μM, technical replicates 1-3, Fig. 2b source data, 25 µM
[8] = [Inhibitor] 100 μM, technical replicates 1-3, Fig. 2b source data, 100 µM
[9] = [Inhibitor] 100 μM, technical replicates 1-3, Fig. 2b source data, read-out: EN activity, percent of no inhibitor control
[10] = [Inhibitor] 250 μM, technical replicates 1-3, Fig. 2b source data, 250 µM
[11] = [Inhibitor] 500 μM, technical replicates 1-3, Fig. 2b source data, 500 µM
[12] = [Inhibitor] 500 μM, technical replicates 1-3, Fig. 2b source data, read-out: EN activity, percent of no inhibitor control
[13] = [Inhibitor] 1000 μM, technical replicates 1-3, Fig. 2b source data, 1000 µM
[14] = [Inhibitor] 1000 μM, technical replicates 1-3, Fig. 2b source data, read-out: EN activity, percent of no inhibitor control
[15] = [Inhibitor] 2500 μM, technical replicates 1-3, Fig. 2b source data, 2500 µM
[16] = compound at 25 μM, average of 3 replicates
[17] = inhibitors at 25 μM, relative to 0 μM inhibitor control, mean ± s.d., 3 independent experiments
[18] = read-out: EN activity, percent of no inhibitor control

`COc1ccc(OC)c(NS(=O)(=O)c2ccc(NS(=O)(=O)c3cccc([N+](=O)[O-])c3)cc2)c1` [AD36] was tested, and the “Binding Detected? (Y/N)” value [1] was “N”, the “PrestoBlue (viability), average” value ([2]; 48 h, 25 μM) was 15.2 and the “L1 retrotransposition, average” value ([3]; 0.5 μM inhibitor) was 4.647. The “L1 retrotransposition, average” value ([3]; 1 μM inhibitor) was 4.699, the “L1 retrotransposition, average” value ([3]; 5 μM inhibitor) was 4.066 and the “L1 retrotransposition, average” value ([3]; 10 μM inhibitor) was 4.169. For the same molecule, the “L1 retrotransposition, average” value ([3]; 25 μM inhibitor) was 2.81, the “L1 retrotransposition, average” value ([3]; 50 μM inhibitor) was 1.253 and the “Luciferase (retrotransposition), average” value ([3]; Figure 4a Graph 4, 25μM, 0μM average 3.426) was 1.266. The “Luciferase (retrotransposition), replicates” value (“Luciferase … replicates” for short) ([3]; Figure 4a Graph 4, 25μM, Replicates 1-4, 0μM average 3.426) was 1.765 and 0.7621 and 1.278 and 1.259, the “Effect on L1 retrotransposition” value ([3]; HeLa cells) was “some activity in the retrotransposition assay” and the “EN activity, percent of no inhibitor control” value [4, 6] was 91.0252% and 84.1869%. The remaining activity at 5 µM ([4]; [Inhibitor] 5 μM, technical replicates 1-3, Fig. 2b source data, read-out: EN activity, percent of no inhibitor control) was 89.6%, the “EN activity, percent of no inhibitor control” value [4, 7] was 101.21% and 100.403% and the remaining activity at 25 µM ([4]; [Inhibitor] 25 μM, technical replicates 1-3, Fig. 2b source data, read-out: EN activity, percent of no inhibitor control) was 82%. The “EN activity, percent of no inhibitor control” value [4, 8] was 79.4211% and 84.6024%, the remaining activity at 100 µM [4, 9] was 96.7% and the “EN activity, percent of no inhibitor control” value [4, 10] was 66.0801% and 55.4717%. The remaining activity at 250 µM ([4]; [Inhibitor] 250 μM, technical replicates 1-3, Fig. 2b source data, read-out: EN activity, percent of no inhibitor control) was 47.9%, the “EN activity, percent of no inhibitor control” value [4, 11] was 50.9528% and 49.6683% and the remaining activity at 500 µM [4, 12] was 60.1%. The “EN activity, percent of no inhibitor control” value ([4]; [Inhibitor] 750 μM, technical replicates 1-3, Fig. 2b source data, 750 µM) was 44.0742% and 35.8636%, the remaining activity at 750 µM ([4]; [Inhibitor] 750 μM, technical replicates 1-3, Fig. 2b source data, read-out: EN activity, percent of no inhibitor control) was 31.6% and the “EN activity, percent of no inhibitor control” value [4, 13] was 29.1344% and 22.6241%. The remaining activity at 1000 µM [4, 14] was 19.6%, the “EN activity, percent of no inhibitor control” value ([4]; [Inhibitor] 1750 μM, technical replicates 1-3, Fig. 2b source data, 1750 µM) was 17.5242% and 11.215% and 25.1816% and the “EN activity, percent of no inhibitor control” value [4, 15] was 18.2597% and 42.0507% and 24.6475%. The “Percent APE1 activity, average” value [5] was 108.9%, the “Percent APE1 activity, replicates” value [5] was 115.202% and 104.299% and 107.269% and the “APE1 percent activity, Replicate 1” value ([5]; compound at 25 μM, Replicate 1) was 121.786%. For the same molecule, the “APE1 percent activity, Replicate 2” value ([5]; compound at 25 μM, Replicate 2) was 104.892%, the “APE1 percent activity, Replicate 3” value ([5]; compound at 25 μM, Replicate 3) was 127.866% and the “APE1 percent activity, average” value [5, 16] was 118.181%. For the same molecule, the activity at 25 µM [5, 17] was 118 ± 11.9%.
For `Cc1cc(=O)oc2c3c(ccc12)O/C(=N/Nc1ccc([N+](=O)[O-])cc1[N+](=O)[O-])C3=O` [AD5], the “Binding Detected? (Y/N)” value [1] was “N”, the “PrestoBlue (viability), average” value [2] was 15.98 and the “Effect on L1 retrotransposition” value [3] was “did not significantly impact retrotransposition”. The “Luciferase (retrotransposition), average” value [3] was 7.139, the “Luciferase … replicates” value [3] was 5.447 and 9.3633 and 6.616 and 7.129 and the “EN activity, percent of no inhibitor control” value ([4]; 0.5 µM) was 83.4432% and 74.5276%. The “EN activity, percent of no inhibitor control” value ([4]; 2 µM) was 70.978% and 73.9003%, the “EN activity, percent of no inhibitor control” value ([4]; 5 µM) was 74.0185% and 75.6649% and the “EN activity, percent of no inhibitor control” value ([4]; 10 µM) was 77.2953% and 59.874% and 46.95%. The “EN activity, percent of no inhibitor control” value ([4]; 25 µM) was 51.0006% and 46.7642%, the “EN activity, percent of no inhibitor control” value ([4]; 100 µM) was 9.806% and 12.2088% and the “EN activity, percent of no inhibitor control” value ([4]; 250 µM) was 10.849% and 15.1279%. The “EN activity, percent of no inhibitor control” value ([4]; 500 µM) was 8.917% and 12.6828%, the remaining activity at 0.5 µM [4, 18] was 82.5% and the remaining activity at 2 µM [4, 18] was 78.9%. It also gave a remaining activity at 5 µM [4, 18] of 74.7%, a remaining activity at 25 µM [4, 18] of 46.1% and a remaining activity at 100 µM [4, 18] of 7.29%. For the same molecule, the remaining activity at 250 µM [4, 18] was 12%, the remaining activity at 500 µM [4, 18] was 9.9% and the “APE1 percent activity, Replicate 1” value [5] was 111.351%. The “APE1 percent activity, Replicate 2” value [5] was 107.526%, the “APE1 percent activity, Replicate 3” value [5] was 109.094% and the “APE1 percent activity, average” value [5] was 109.324%. It also gave an activity at 25 µM [5] of 109 ± 1.9%.
With `O=C(Cn1nc(-c2ccc(Br)cc2)ccc1=O)NC[C@H]1CC[C@H](C(=O)O)CC1` [AD43] the “Binding Detected? (Y/N)” value [1] was “N”, the “PrestoBlue (viability), average” value ([2]; 48 h, 50 μM) was 6.621 and the “Luciferase (retrotransposition), average” value ([3]; Figure 4a Graph 5, 50μM, 0μM average 4.537) was 2.141. The “Luciferase … replicates” value ([3]; Figure 4a Graph 5, 50μM, Replicates 1-4, 0μM average 4.537) was 2.066 and 2.337 and 2.1059 and 2.055, the “Effect on L1 retrotransposition” value ([3]; HeLa cells) was “some activity in the retrotransposition assay” and the “EN activity, percent of no inhibitor control” value [4, 6] was 82.7533% and 93.1928% and 121.814%. For the same molecule, the “EN activity, percent of no inhibitor control” value [4, 7] was 125.36% and 146.969% and 130.066%, the “EN activity, percent of no inhibitor control” value ([4]; [Inhibitor] 50 μM, technical replicates 1-3, Fig. 2b source data, 50 µM) was 105.857% and 111.128% and the remaining activity at 50 µM ([4]; [Inhibitor] 50 μM, technical replicates 1-3, Fig. 2b source data, read-out: EN activity, percent of no inhibitor control) was 117%. The “EN activity, percent of no inhibitor control” value [4, 8] was 119.496% and 103.054%, the remaining activity at 100 µM [4, 9] was 106% and the “EN activity, percent of no inhibitor control” value [4, 10] was 70.4269% and 99.2352% and 82.7621%. For the same molecule, the “EN activity, percent of no inhibitor control” value [4, 11] was 75.3754% and 92.6354%, the remaining activity at 500 µM [4, 12] was 82.7% and the “EN activity, percent of no inhibitor control” value [4, 13] was 36.4624% and 21.4688%. The remaining activity at 1000 µM [4, 14] was 31.2%, the “EN activity, percent of no inhibitor control” value [4, 15] was -1.238% and -2.463% and -2.08% and the “Percent APE1 activity, average” value [5] was 116.3%. For the same molecule, the “Percent APE1 activity, replicates” value [5] was 119.605% and 105.469% and 123.903%, the “APE1 percent activity, Replicate 1” value ([5]; compound at 25 μM, Replicate 1) was 116.306% and the “APE1 percent activity, Replicate 2” value ([5]; compound at 25 μM, Replicate 2) was 108.363%. For the same molecule, the “APE1 percent activity, Replicate 3” value ([5]; compound at 25 μM, Replicate 3) was 123.152%, the “APE1 percent activity, average” value [5, 16] was 115.94% and the activity at 25 µM [5, 17] was 116 ± 7.4%.
`O=C1c2ccc(Oc3ccc4c(c3)C(=O)N(Nc3ccc([N+](=O)[O-])cc3[N+](=O)[O-])C4=O)cc2C(=O)N1Nc1ccc([N+](=O)[O-])cc1[N+](=O)[O-]` [AD13] was tested, and the “Binding Detected? (Y/N)” value [1] was “N”, the “PrestoBlue (viability), average” value [2] was 12.09 and the “Luciferase (retrotransposition), average” value [3] was 4.925. The “Luciferase … replicates” value [3] was 6.1144 and 4.934 and 4.878 and 3.774, the “EN activity, percent of no inhibitor control” value ([4]; 0.5 µM) was 119.788% and 111.52% and the “EN activity, percent of no inhibitor control” value ([4]; 10 µM) was 92.6481% and 80.1764%. For the same molecule, the “EN activity, percent of no inhibitor control” value ([4]; 25 µM) was 33.9668% and 41.2844%, the “EN activity, percent of no inhibitor control” value ([4]; 50 µM) was 7.541% and 8.862% and 3.766% and the “EN activity, percent of no inhibitor control” value ([4]; 100 µM) was 1.558% and 1.832%. For the same molecule, the “EN activity, percent of no inhibitor control” value ([4]; 250 µM) was 1.124% and 2.509% and 2.58%, the “EN activity, percent of no inhibitor control” value ([4]; 500 µM) was 0.9149% and 2.171% and 1.168% and the “EN activity, percent of no inhibitor control” value ([4]; 1000 µM) was 5.545% and 2.613% and 9.084%. For the same molecule, the remaining activity at 0.5 µM [4, 18] was 114%, the remaining activity at 10 µM [4, 18] was 97.9% and the remaining activity at 25 µM [4, 18] was 25.1%. For the same molecule, the remaining activity at 100 µM [4, 18] was 0.968%, the remaining activity at […] [4, 18] was 89.7% and the “APE1 percent activity, Replicate 1” value [5] was 97.407%. For the same molecule, the “APE1 percent activity, Replicate 2” value [5] was 88.0071%, the “APE1 percent activity, Replicate 3” value [5] was 67.6438% and the “APE1 percent activity, average” value [5] was 84.3526%. For the same molecule, the activity at 25 µM [5] was 84.4 ± 15.2%.
